# Data reported in paper PMC9124866, “Structure-Activity Relationships of Dopamine Transporter Pharmacological Chaperones” (Frontiers in Cellular Neuroscience, 2022).
# Molecular target: YFP-HA-βlac-DAT (Homo sapiens, UniProt Q01959)
# Test: β-lactamase (βlac) surface expression assay
# Assay type: cell-based
# Conditions: HEK293, HEK cells expressing YFP-HA-βlac-DAT, overnight (16 h) incubation, up to 100 μM, normalized to vehicle; assumed effective EMax; read-out: EMax (%), WT DAT surface expression
# Protocol: The βlac surface expression assay was performed by following the method outlined in [Lam et al. (2013)] and [Beerepoot et al. (2015], [2016)]. The assay substrate nitrocefin (BD biosciences) was dissolved in dimethyl sulfoxide (DMSO) at a concentration of 10 mM and frozen at −80°C. Immediately before use, it was thawed and diluted to a final concentration of 100 μM in phosphate buffered saline (PBS). Cells (1 × 10^5/well) were seeded into a poly-D-lysine-coated 48-well plate and incubated for 24 h, prior to drug treatment. Drugs were added to individual wells at varying concentrations and incubated for 16 h. Subsequently, the media was aspirated, and the cells were washed twice with PBS. After removal of the final PBS wash, 200 μL of the nitrocefin solution was added to each well and the absorbance was immediately read. The EPOCH microplate spectrophotometer (BioTek) was used to measure absorbance (486 nm) for each well every minute for 30 min. The rate of reaction (slope of the curve) was used as the readout for the assay ([Beerepoot et al., 2015]). To determine suitable concentration ranges for each drug, they were dissolved in PBS or DMSO at the highest concentration possible. From here, the solutions were serial diluted 1/10 to yield 8 different concentrations. βLAC cells were then treated with the varying drug concentrations and cell viability was recorded using light microscopy. For additional measure, nitrocefin was added and the absorbance was read. For certain cases, Trypan Blue was used to quantitatively differentiate increased cell death from reduced cell division. […] Five or six doses were generally used in subsequent dosing experiments, starting at the highest non-toxic concentration.
# Data analysis was performed using GraphPad Prism (GraphPad Software, La Jolla, CA). Linear regression analysis was performed on βLAC time points to determine the slope, thus the rate of reaction, for comparison. Furthermore, the slope was also used to determine the degree of dopamine uptake in the dopamine uptake assays. Non-linear regression, fitting to the log(agonist) vs. response and log(inhibitor) vs. response model curve, was used to determine dose-response relationships of surface expression and uptake assays, respectively. One-way ANOVA with Dunnett’s post hoc-test was used for the β-lactamase assay and one-way ANOVA with Bonferroni correction was used for western blot analysis.
# Among these were RTI-1, RTI-2, RTI-5, RTI-6, RTI-11, RTI-20, and PAL-1007. […] The EMax values of all the analyzed drugs are included in Figure 1.
# The pharmacological chaperone ability of the 15 ibogaine and tryptamine analogs, shown in Figure 3, were measured using the βlac surface expression assay. HEK cells expressing YFP-HA-βlac-DAT were incubated overnight with these compounds at concentrations varying by log and half-log dilutions, starting at 100 μM final concentration. […] Furthermore, it was important to determine whether the β-carboline analogs could also elicit a chaperone effect because they are not classified as DAT ligands ([Cao et al., 2007]). […] Removing the nitrogen from the ring reduced efficacy as observed with frovatriptan (103 ± 1.4%). […] Evodiamine (54 ± 1.7%) had no chaperone ability and caused a substantial reduction in the surface expression of DAT. Dose-response curves were generated to assess the pharmacological chaperone potencies of select compounds (Figure 4).
# Sequence of YFP-HA-βlac-DAT (Q01959 1-171 limits assumed): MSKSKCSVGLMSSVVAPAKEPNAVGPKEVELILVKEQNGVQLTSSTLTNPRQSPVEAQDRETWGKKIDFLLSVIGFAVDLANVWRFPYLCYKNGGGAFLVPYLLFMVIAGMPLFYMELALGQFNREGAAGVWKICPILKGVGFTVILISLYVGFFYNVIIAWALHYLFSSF
# Sequence of YFP-HA-βlac-DAT (Q01959 237-620 limits assumed): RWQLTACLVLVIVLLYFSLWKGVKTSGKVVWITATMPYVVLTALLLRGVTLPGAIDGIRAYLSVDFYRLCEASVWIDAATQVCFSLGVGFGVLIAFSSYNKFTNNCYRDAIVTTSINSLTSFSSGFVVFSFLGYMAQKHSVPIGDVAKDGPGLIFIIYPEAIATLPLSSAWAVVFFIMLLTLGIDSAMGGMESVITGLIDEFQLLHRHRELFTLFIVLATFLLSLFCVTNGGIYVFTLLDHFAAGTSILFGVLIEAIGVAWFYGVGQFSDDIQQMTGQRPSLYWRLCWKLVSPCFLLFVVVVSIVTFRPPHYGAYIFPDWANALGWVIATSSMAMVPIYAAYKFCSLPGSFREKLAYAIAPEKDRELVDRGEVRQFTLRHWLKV
row,Structure (SMILES),Emax [%]
1,"COc1ccc2[nH]c3c(c2c1)CCN(C)CC3 [Ibogainealog, ibogainealog]",169 ± 13.7
2,CN1CCc2[nH]c3ccccc3c2CC1 [Ibogaminalog],175 ± 12.9
3,"CN1CCc2[nH]c3ccc(O)cc3c2CC1 [Noribogainalog, noribogainalog]",185 ± 17.9
4,CC(NC1CC1)C(=O)c1cccc(Cl)c1 (centres unmarked) [PAL-433],93 ± 10.4
5,CC(NC1CC1)C(=O)c1cccc(Br)c1 (centres unmarked) [PAL-586],93 ± 5.8
6,CCCN(CCC)CCc1c[nH]c2ccc(OC)cc12 [PAL-709],97 ± 7.2
7,COc1cccc(C(=O)C(C)NC2CC2)c1 (centres unmarked) [PAL-789],93 ± 10.6
8,CC(NC1CC1)C(=O)c1ccc(F)c(Cl)c1 (centres unmarked) [PAL-819],90 ± 5
9,CC(NC1CCC1)C(=O)c1ccccc1 (centres unmarked) [PAL-933],114 ± 2.3
10,Cc1ccc(C(=O)C(C)N(C)Cc2ccccc2)cc1 (centres unmarked) [PAL-945],85
11,CC(NC1CCC1)C(=O)c1cccc(Cl)c1 (centres unmarked) [PAL-1007],136 ± 9.1
12,CC(NC1CCC1)C(=O)c1cccc(F)c1 (centres unmarked) [PAL-1008],96 ± 7.3
13,CNC(C)C(=O)c1cccc(C)c1 (centres unmarked) [PAL-1101],105 ± 3.6
14,C[C@@H](NC1CCC1)C(=O)c1cccc(Cl)c1 [PAL-1132],110
15,C[C@H](NC1CCC1)C(=O)c1cccc(Cl)c1 [PAL-1134],98
16,CC(NC1CC1)C(=O)c1cccc(C(F)(F)F)c1 (centres unmarked) [PAL-1178],92 ± 1.2
17,Cc1ccc(C(=O)C(C)N)cc1 (centres unmarked) [PAL-1270],104 ± 2.3
18,CC(NC1CCC1)C(=O)c1c[nH]c2ccccc12 (centres unmarked) [PAL-1407],98 ± 3.9
19,Cc1cccc(C(=O)C(C)NC2CCC2)c1 (centres unmarked) [PAL-1411],110 ± 4.5

row,Structure (SMILES),Emax [%]
1,CC(NC1CCC1)C(=O)c1ccc2c(c1)OCO2 (centres unmarked) [PAL-1414],102
2,CC(C)N(CCc1c[nH]c2cccc(O)c12)C(C)C [PAL-1416],127 ± 6.6
3,CC(NC(C)(C)C)C(=O)c1ccccc1 (centres unmarked) [PAL-1463],117
4,COc1cccc(C(=O)C(C)NC(C)(C)C)c1 (centres unmarked) [PAL-1465],91
5,CC(NC(C)(C)C)C(=O)c1cccc(F)c1 (centres unmarked) [PAL-1466],100
6,CC(C)NC(C)C(=O)c1cccc(Cl)c1 (centres unmarked) [PAL-1467],100 ± 4
7,CC(Cc1cccc(Cl)c1)NC(C)(C)C (centres unmarked) [PAL-1468],117
8,CC(NC(C)(C)C)C(=O)c1cccc(Br)c1 (centres unmarked) [RTI-1],161 ± 2.7
9,CC(NC(C)(C)C)C(=O)c1ccc(Br)cc1 (centres unmarked) [RTI-2],127 ± 2.6
10,CC(NC(C)(C)C)C(=O)c1ccc(Cl)cc1 (centres unmarked) [RTI-3],113 ± 6.2
11,CC(NC(C)(C)C)C(=O)c1ccc(Cl)c(Cl)c1 (centres unmarked) [RTI-4],110 ± 5.7
12,Cc1cccc(C(=O)C(C)NC(C)(C)C)c1 (centres unmarked) [RTI-6],134 ± 9.6
13,CC(C(=O)c1cccc(Cl)c1)N1CCCCC1 (centres unmarked) [RTI-7],102 ± 3.9
14,CC(C(=O)c1cccc(Cl)c1)N(C)C (centres unmarked) [RTI-8],107 ± 6.3
15,CC(C(=O)c1cccc(Cl)c1)N(C)C(C)(C)C (centres unmarked) [RTI-9],87 ± 14.6
16,CCC(NC(C)(C)C)C(=O)c1cccc(Cl)c1 (centres unmarked) [RTI-11],131 ± 3.7
17,CC(NC(C)(C)C)C(=O)c1ccc(F)c(F)c1 (centres unmarked) [RTI-13],99 ± 4.3
18,CC(NC(C)(C)C)C(=O)c1cc(Cl)cc(Cl)c1 (centres unmarked) [RTI-17],78 ± 2.8

# Same assay, conditions: HEK293, HEK cells expressing YFP-HA-βlac-DAT, overnight incubation, normalized to vehicle; read-out: EMax (%), WT DAT surface expression
row,Structure (SMILES),Emax [%]
1,"CN[C@@H](C)[C@H](O)c1ccccc1 [Ephedrine, ephedrine, reference compound]",128 ± 4.7

# Same assay, conditions: HEK293, read-out: EMax (%), WT DAT surface expression, HEK cells expressing YFP-HA-βlac-DAT, overnight (16 h) incubation, up to 100 μM, normalized to vehicle; assumed effective EMax
row,Structure (SMILES),Emax [%]
1,"CC1NC(C)(C)COC1(O)c1cccc(Cl)c1 (centres unmarked) [6-Hydroxybupropion, 6-hydroxybupropion, reference compound]",148 ± 5.4
2,"CN1CCc2[nH]c3ccc(F)cc3c2CC1 [Fluorogainalog, fluorogainalog]",219 ± 29
3,"CN[C@@H]1CCc2[nH]c3ccc(C(N)=O)cc3c2C1 [Frovatriptan, frovatriptan, reference compound]",103 ± 1.4
4,"CC[C@H]1C[C@@H]2C[C@H]3c4[nH]c5ccccc5c4CCN(C2)[C@@H]13 [Ibogamine, reference compound]",202 ± 7.1
5,"COc1ccc2[nH]c3c(c2c1)CCNC3 [Pinoline, pinoline, reference compound]",141 ± 4.4
6,CC(CNC(C)(C)C)C(=O)c1cccc(Cl)c1 (centres unmarked) [RTI-10],36 ± 1.4
